From patent US20120035125A1, “FULVIC ACID IN COMBINATION WITH FLUCONAZOLE OR AMPHOTERICIN B FOR THE TREATMENT OF FUNGAL INFECTIONS” (Natracine UK Limited, priority 2009, published 2012)
Values after ≈ are worked out from the molar mass of the structure shown.

Experiments:
Aspergillus = conditions: stated to be toxic to the subject; cited from earlier work
Aspergillus terreus = assay: In vitro susceptibility (MIC, broth microdilution), CHD-FA and amphotericin B; type: cell-based; conditions: for MIC: Aspergillus terreus
Protocol: (§1) Each culture was grown on Sabouraud agar at 37° C. for 10 days to ensure purity and to allow spores to mature
(§2) RPMI-1640 (Sigma, Dorset, UK) supplemented to 2% glucose (Sigma), buffered with morpholinopropanesulfonic acid (MOPS), (Sigma) and adjusted to pH 7.0 was used as recommended in the Clinical Laboratory Standards M38A document (Reference method for broth dilution antifungal susceptibility testing of conidium-forming filamentous fungi. Approved standard. Document M38-A 2002a. NCCLS, Wayne, Pa. 2002. NCCLS, Wayne, Pa., USA).
(§3) a) All fungi were cultured in ambient air at 35-37° C. on recovery medium (Sabouraud dextrose agar) for 8-10 days before testing.
(§4) b) Inoculum suspensions were prepared from day 8 to 10 day cultures grown on Sabouraud dextrose agar at 37° C. in vented tissue culture flasks to avoid crosscontamination. Spores were harvested by flooding the surface of the growth with 25 ml of sterile phosphate buffered saline plus 0.05% Tween 80. The spore count was adjusted using a counting chamber.
(§5) c) The inoculum was completely suspended by vigorous shaking on a vortex mixer for 15 s. […] Drug-free and cell-free controls were included. (The RPMI medium used in the plates was prepared at either 2× or 4×the final strength to allow for dilution once the inoculum and diluted CHD-FA was added).
(§6) Sterile plastic, disposable, microtitration plates with 96 flat-bottom wells were used.
(§7) a) Column 1 of the microtitration tray was filled with 100 μL of sterile water containing four times the final drug concentration (16 mg/L amphotericin B).
(§8) b) Columns 2-12 were filled with 50 μL of distilled water
(§9) c) 50 μL amounts were taken from wells in column 1 and diluted two-fold by transferring them to column 2 with a multichannel pipette (±2% coefficient of variation). 50 μL samples were then removed from column 2 and transferred to column 3, and so on through to column 10. The last 50 μL of diluted drug is then discarded. Thus, each well in columns 1-10 will contain 50 μL of water containing four times the final antifungal drug concentrations.
(§10) Stock solutions of CHD-FA were produced containing 4%, 2%, 1%, 0.5% and 0.25% of the native compound.
(§11) 100 μL of the diluted CHD-FA was added to microtitration trays in so that row A contains a final dilution of 2% row B, 1%, row C 0.5%, row D 0.25% row E 0.125% and row F diluent only.
(§12) 50 μL of the diluted spore suspension in 4×RPMI was added to all wells. This produces a well containing 200 μL final volume (made up of 50 μL diluted antifungal, 100 μL diluted CHD-FA or diluent, 50 μL of 4×RPMI containing fungal spores)
(§13) All plates were incubated at 37° C. in air in a darkened incubator.
(§14) Plates were read visually with the endpoint taken as the lowest concentration of drug that inhibited growth by 50% of that of the drug free control.

Aspergillus fumigatus = assay: as above; type: cell-based; conditions: for MIC: Aspergillus fumigatus
Protocol: as §1, §2, §3, §4, §5, §6, §7, §8, §9, §10, §11, §12, §13, §14

Aspergillus flavus = assay: as above; type: cell-based; conditions: for MIC: Aspergillus flavus
Protocol: as §1, §2, §3, §4, §5, §6, §7, §8, §9, §10, §11, §12, §13, §14

Absidia corymbifera = assay: as above; type: cell-based; conditions: Lichtheimia corymbifera
Protocol: as §1, §2, §3, §4, §5, §6, §7, §8, §9, §10, §11, §12, §13, §14

Fusarium solani = assay: as above; type: cell-based
Protocol: as §1, §2, §3, §4, §5, §6, §7, §8, §9, §10, §11, §12, §13, §14

Which “dose required to inhibit Aspergillus” value (Aspergillus) does the source give for `C[C@@H]1[C@H](O)[C@@H](C)/C=C/C=C/C=C/C=C/C=C/C=C/C=C/[C@H](O[C@@H]2O[C@H](C)[C@@H](O)[C@H](N)[C@@H]2O)C[C@@H]2O[C@](O)(C[C@@H](O)C[C@@H](O)[C@H](O)CC[C@@H](O)C[C@@H](O)CC(=O)O[C@H]1C)C[C@H](O)[C@H]2C(=O)O` [Amphotericin B] here?
Its value is 3 mg/L.

And the Amphotericin MIC (Aspergillus terreus; A. terreus strain 1, CHD-FA Dilution 0.125)?
The Amphotericin MIC was 0.25 µg/mL.

And the “Amphotericin MIC” value (Aspergillus terreus; A. terreus strain 1, CHD-FA Dilution 0.25)?
Its value is “No Growth”.

And the “Amphotericin MIC” value (Aspergillus terreus; A. terreus strain 1, CHD-FA Dilution 0.5)?
The value was “No Growth”.

What about the Amphotericin MIC (Aspergillus terreus; A. terreus strain 2, CHD-FA Dilution 0.125) of the same molecule?
Its Amphotericin MIC is 0.125 µg/mL.

What about the “Amphotericin MIC” value (Aspergillus terreus; A. terreus strain 2, CHD-FA Dilution 0.25) of the same molecule?
Its value is “No Growth”.

What about the “Amphotericin MIC” value (Aspergillus terreus; A. terreus strain 2, CHD-FA Dilution 0.5) of the same molecule?
Its value is “No Growth”.

And the MIC (Aspergillus terreus; A. terreus isolate 1)?
Its MIC is 0.5 µg/mL (≈ 0.541 µM).

What about the MIC (Aspergillus terreus; A. terreus isolate 2) of the same molecule?
The MIC was 1 µg/mL (≈ 1.08 µM).

What about the Amphotericin MIC (Aspergillus fumigatus; A. fumigates strain 1, CHD-FA Dilution 0.125) of the same molecule?
Its Amphotericin MIC is 0.06 µg/mL.

And the “Amphotericin MIC” value (Aspergillus fumigatus; A. fumigates strain 1, CHD-FA Dilution 0.25)?
The value was “No Growth”.

And the “Amphotericin MIC” value (Aspergillus fumigatus; A. fumigates strain 1, CHD-FA Dilution 0.5)?
The value was “No Growth”.

And the Amphotericin MIC (Aspergillus fumigatus; A. fumigates strain 2, CHD-FA Dilution 0.125)?
The Amphotericin MIC was 0.125 µg/mL.

What about the “Amphotericin MIC” value (Aspergillus fumigatus; A. fumigates strain 2, CHD-FA Dilution 0.25) of the same molecule?
The value was “No Growth”.

And the “Amphotericin MIC” value (Aspergillus fumigatus; A. fumigates strain 2, CHD-FA Dilution 0.5)?
Its value is “No Growth”.

What about the MIC (Aspergillus fumigatus; A. fumigatus isolate 1) of the same molecule?
Its MIC is 0.5 µg/mL (≈ 0.541 µM).

What about the MIC (Aspergillus fumigatus; A. fumigatus isolate 2) of the same molecule?
The MIC was 0.25 µg/mL (≈ 0.271 µM).

And the Amphotericin MIC (Aspergillus flavus; A. flavus strain 1, CHD-FA Dilution 0.125)?
The Amphotericin MIC was greater than 4 µg/mL.

What about the “Amphotericin MIC” value (Aspergillus flavus; A. flavus strain 1, CHD-FA Dilution 0.25) of the same molecule?
The value was “No Growth”.

What about the “Amphotericin MIC” value (Aspergillus flavus; A. flavus strain 1, CHD-FA Dilution 0.5) of the same molecule?
The value was “No Growth”.

And the Amphotericin MIC (Aspergillus flavus; A. flavus strain 2, CHD-FA Dilution 0.125)?
Its Amphotericin MIC is 0.25 µg/mL.

What about the “Amphotericin MIC” value (Aspergillus flavus; A. flavus strain 2, CHD-FA Dilution 0.25) of the same molecule?
Its value is “No Growth”.

What about the “Amphotericin MIC” value (Aspergillus flavus; A. flavus strain 2, CHD-FA Dilution 0.5) of the same molecule?
The value was “No Growth”.

What about the MIC (Aspergillus flavus; A. flavus isolate 1) of the same molecule?
The MIC was 4 µg/mL (≈ 4.33 µM).

And the MIC (Aspergillus flavus; A. flavus isolate 2)?
The MIC was 0.5 µg/mL (≈ 0.541 µM).

What about the MIC (Absidia corymbifera; Absidia isolate 1) of the same molecule?
Its MIC is 0.25 µg/mL (≈ 0.271 µM).

What about the MIC (Absidia corymbifera; Absidia isolate 2) of the same molecule?
The MIC was 0.06 µg/mL (≈ 0.0649 µM).

What about the “Amphotericin MIC” value (Fusarium solani; Fusarium isolate 2) of the same molecule?
The value was 2.0 mg/L.

And the MIC (Fusarium solani; Fusarium solani, Fusarium isolate 1)?
The MIC was 2 µg/mL (≈ 2.16 µM).
